Two compounds from patent publication US20230339835A1, “2,3,5-TRIMETHYL-6-NONYLCYCLOHEXA-2,5-DIENE-1,4-DIONE FOR SUPPRESSING AND TREATING ALPHA-SYNUCLEINOPATHIES, TAUOPATHIES, AND OTHER DISORDERS” (PTC THERAPEUTICS, INC., priority 2018, published 2023) can be followed below.

The test system of assay [1] is N27 rat dopaminergic cells overexpressing a truncated human αSynuclein-GFP fusion protein. The assay can be described thus: Inhibition of RSL3-induced αSynuclein aggregation in N27 cells. It counts as cell-based. The following applies: 60 nM RSL3, 70 nM compound, 24 hr, vs RSL3 only (Dunnett's test). How it is done:
N27 rat dopaminergic cells (purchased from EMD Millipore, SCC048) were transformed to stably overexpress truncated α-Synuclein fused with green fluorescent protein (GFP) with a plasmid construct obtained from Origene (RG221446). Cells were maintained in selection media which consisted of RPMI 1640 media supplemented with 10% (v/v) fetal bovine serum (Millipore, ES-009-B), 1% (v/v) Pencillin-Streptomycin (Gibco, 15140-122), 1% (v/v) L-Glutamine (Gibco, 25030-081) and 500 μg/mL of G418 (Gibco, 10131-027).
N27 rat dopaminergic cells overexpressing a truncated (112 amino acid) human αSynuclein-GFP fusion protein, as described above, were maintained in normal culture conditions as described above. The day before the experiment, cells were plated in 96 well optical bottom, black walled plates at 3,000 cells/well, and maintained at 37° C. for 24 hr. The experiment was initiated by co-treating cells with (1S,3R)-methyl 2-(2-chloroacetyl)-1-(4-(methoxycarbonyl)phenyl)-2,3,4,9-tetrahydro-1H-pyrido[3,4-b]indole-3-carboxylate (1S,3R-RSL3, described by Yang et al., Cell 156:317-331 (2014)) (60 nM) and 70 nM compounds (2,3,5-trimethyl-6-nonylcyclohexa-2,5-diene-1,4-dione (C9), 2,3,5-trimethyl-6-octylcyclohexa-2,5-diene-1,4-dione (C8), or 2,3,5-trimethyl-6-heptylcyclohexa-2,5-diene-1,4-dione (C7)) using a D300e compound printer (Tecan), and placed back in the incubator at 37° C. for 24 hr. Cells were fixed with 4% paraformaldehyde for 15 minutes at room temperature, washed 3 times with Dulbecco's phosphate-buffered saline (DPBS) buffer, and then incubated at room temperature for 48 hr with 1% Triton-X 100 solution (in DPBS) to enable selective labeling of aggregated αSynuclein. Cells were then washed and standard immunocytochemistry (ICC) methods were employed to label total αSynuclein (mouse anti-αSynuclein, 1:250, BD Biosciences). Cells were incubated with primary antibody overnight at 4° C. and then washed with DPBS 3 times the following day. Cells were then incubated at room temperature with a fluorescently conjugated secondary antibody (goat anti-mouse Alexa 647, Invitrogen) for 2 hr at room temperature. 10 nM Hoechst was also added to label nuclei, and cells were imaged on a high-content imaging platform (ThermoFisher, HSC Cellomics Arrayscan) to quantify total aggregated αSynuclein (see FIG. 3A).
Statistical analysis of samples was performed via ordinary one-way ANOVA analysis with Dunnett's multiple comparisons test, comparing RSL3 only-treated vs. RSL3 plus compound-treated cells.

For assay [2], the target named is T1, recombinant human αSynuclein (Homo sapiens, UniProt P37840).
T1 construct: purchased Proteos, Inc
As to the kind of experiment: Cell-free αSynuclein aggregation assay (Thioflavin T). The assay is classed as biochemical. The settings on record: 200 μM αSynuclein, 100 μM compound, t=24 hours, one-way ANOVA with Tukey's test. Here is the method:
Summary: The compound 2,3,5-trimethyl-6-nonylcyclohexa-2,5-diene-1,4-dione (“C9”), and its C8 (2,3,5-trimethyl-6-octylcyclohexa-2,5-diene-1,4-dione) and C7 (2,3,5-trimethyl-6-heptylcyclohexa-2,5-diene-1,4-dione) analogs were tested for their function as inhibitors of αSynuclein aggregation, as measured by the presence and extent of a lag phase in the kinetics of protein aggregation. Changes in the fluorescence intensity by the aggregate-binding fluorophore, Thioflavin T, were followed to report on the protein aggregation as a function of time.
Experimental Methods: Cell-free αSynuclein aggregation assays were set up with 200 μM of recombinant human αSynuclein (Proteos, Inc.) in the presence of 100 μM of compound (from 10 mM stock solutions in DMSO) or in 1% (v/v) DMSO as vehicle. All solutions were prepared in Dulbecco's phosphate-buffered saline (DPBS) buffer (pH 7.4) with 0.03% (v/v) NaN3 and 5 μM Thioflavin T (ThT), prepared as a master mix before addition of the protein or compounds. A protein master mix was then prepared and separated into 4 tubes (1 per condition). […]
Protein solution+/−compound and background samples were then loaded into wells of an optically transparent 96-well plate with black walls (Corning Costar), which was sealed with a LightCycler® 480 seal (Roche Life Science), incubated at 37° C. for 15 minutes to equilibrate, after which the data collection was started. A Tecan M1000 spectrometer was used to collect data points on ThT fluorescence (ex/em 450/490 nm) every 30 minutes. The plate was agitated by shaking in between fluorescence reads.
Data Analysis and Results: Fluorescence intensity data were collected on all the samples over time. The endpoint fluorescence intensity unit (FIU) value of the mean of vehicle-treated αSyn samples was set to 100%, and all other FIU values were normalized relative to it (see FIG. 1A). The end results were plotted as normalized ThT fluorescence (%) with respect to time.
Normalized ThT fluorescence values (% FIU) at t=24 hours were used to compare samples (see FIG. 1B). […]

In assay [3] the target is T2, pre-formed fibrils (PFFs) of human wild-type Tau K18 fragment (Homo sapiens, UniProt P10636).
T2 construct: human recombinant Tau K18 WT fragment were generated by incubating the Tau K18 monomer (Bio-Techne®); purchased Bio-Techne
T2 sequence (P10636 561-685 limits assumed): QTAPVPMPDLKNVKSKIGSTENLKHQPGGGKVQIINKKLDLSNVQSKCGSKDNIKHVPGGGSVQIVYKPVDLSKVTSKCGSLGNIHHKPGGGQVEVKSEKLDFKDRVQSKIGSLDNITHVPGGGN
As to the kind of experiment: Cell-free Tau K18 WT pre-formed fibril disaggregation assay (Thioflavin T). It counts as biochemical. The following applies: 10 μM Tau PFFs, 30 μM compound, 94 hr, vs vehicle (Dunnett's test). Here is the method: Summary: Compounds 2,3,5-trimethyl-6-nonylcyclohexa-2,5-diene-1,4-dione (C9), 2,3,5-trimethyl-6-octylcyclohexa-2,5-diene-1,4-dione (C8), and 2,3,5-trimethyl-6-heptylcyclohexa-2,5-diene-1,4-dione (C7) were tested for their ability to disaggregate pre-formed fibrils (PFFs) of human wild-type Tau K18 fragment, as measured by the decrease in fluorescence intensity of the aggregate-binding fluorophore, Thioflavin T, over time.
Experimental Methods: Pre-formed fibrils (PFFs) of the human recombinant Tau K18 WT fragment were generated by incubating the Tau K18 monomer (Bio-Techne®) with sodium heparin in a 1:1 ratio in presence of excess (50×) tris(2-carboxyethyl)phosphine (TCEP) as the reducing agent in Dulbecco's phosphate-buffered saline (DPBS) buffer (pH 7.4). The mixture was incubated for 4 days at 37° C. without agitation to yield PFFs in 100 μM final concentration.
Cell-free Tau disaggregation assays were set up with 10 μM of Tau PFFs in the presence of 30 μM of compound (from 10 mM stocks in DMSO) or in 0.3% (v/v) DMSO as vehicle. All solutions were prepared in DPBS buffer (pH 7.4) with 0.03% (v/v) NaN3 and 5 μM Thioflavin T (ThT), prepared as a master mix before addition of the protein or compounds. A protein master mix was first prepared the day before the assay to pre-equilibrate the Tau PFFs at 10 μM at ambient temperature and atmosphere. The next day, the pre-mixed protein solution was separated into 4 tubes (1 per condition). […]
Tau PFFs solution+/−compound and background samples were then loaded into wells of an optically transparent 96-well plate with black walls, which was sealed with a LightCycler® 480 seal (Roche Life Science), incubated at 37° C. for 15 minutes to equilibrate and the data collection was initiated. A Tecan M1000 spectrometer was used to collect data points on ThT fluorescence (ex/em 450/490 nm) every 30 minutes without agitation.
Data Analysis and Results: The maximum fluorescence intensity unit (FIU) value of the vehicle-treated Tau samples was set to 100%, to which all other FIU values were normalized relatively. […]

Assay [4] relates to C57Bl/6 mice, MPTP-induced model of PD. As to the kind of experiment: Mouse MPTP model of Parkinson's Disease, open field locomotor assay. The assay is classed as in vivo. The following applies: MPTP 60 mg/kg (3 x 20 mg/kg at two-hour intervals). An excerpt: Animals. Species: Mouse. Strain: C57Bl/6. Source of Animals: Charles River. Age: 6 to 7 weeks. Sex: Male. Randomization: Animals were assigned randomly to treatment groups. Blinding of Study: Experimenters were blinded to the experimental treatments
Housing and Feeding. Acclimation/Conditioning: Not less than three days. Housing: Mice were housed on a 12 hr light/dark cycle (lights on 6:00 AM) No more than 4 mice per cage. Ventilated cage rack system. Diet: Standard rodent chow and water ad libitum.
Design Parameters. Route(s) of administration: PO. Dose Volume: PO: 5 mL/kg. Formulation(s): formulated by Melior according to directions from BioElectron. Vehicle-sesame oil (Spectrum Chemical, NF Catalog #SE130, CAS #8008-74-0). Dose Levels: 300 mg/kg. Dose Frequency: QD starting Day −2 (MPTP=Day 0) and until Day 7. Study duration: 11 days. Pretreatment time (up to 2 hrs): For Day 0 (MPTP Day): 30 min, Pretreatment time for Open Field Assay/Locomotor Activity (OFA/LMA) assay: 1 hr. Number of Groups: 3. Number of animals per group: 10. Total number of animals: 30 (in the study), 42 animals total (To ensure a proper power analysis of at least 10 animals/group, for all groups receiving MPTP, 4 additional animals were added to mitigate study impacts if there were MPTP-induced fatalities).
MPTP Treatment. MPTP was formulated in phosphate buffered saline and administered to mice three times at a dose of 20 mg/kg (1 mg/mL delivered at 20 mL/kg) at two-hour intervals (final dose of MPTP=60 mg/kg).
Locomotor activity. One day prior (baseline) and on Day 7 after MPTP administration (Day (−1) and Day 7), mice were monitored for various aspects of locomotor function using a fully automated open-field apparatus (Med-Associates, Inc). The apparatus consisted of a 10.75″×10.75″ arena enclosed in a sound-attenuated box, equipped with the fan and house light. […]
Data analysis. Data were averaged and are expressed as the average±SEM.
Data were analyzed by one-way ANOVA followed by a post-hoc tests. p-values of less than 0.05 were considered to be statistically significant from control.

With `CCCCCCCC1=C(C)C(=O)C(C)=C(C)C1=O` [Compound C7, 2,3,5-trimethyl-6-heptylcyclohexa-2,5-diene-1,4-dione], the “inhibition of RSL3-induced αSynuclein aggregation” value in assay [1] is listed as “did not demonstrate any inhibition”. For the same compound, in assay [2], the “inhibition of αSynuclein aggregation (normalized ThT fluorescence vs vehicle)” value was “not statistically significant”. The “reduction in Tau fibril content” value in assay [3] is “did not have a significant reduction”.

With `CN1CC=C(c2ccccc2)CC1` [MPTP, 1-methyl-4-phenyl-1,2,3,6-tetrahydropyridine, reference compound], in assay [4], the “depletion of dopamine in the striatum” value was ~74%.
